From ChEMBL document CHEMBL1201862, “PubChem BioAssay data set” (2004)
Calls of active or inactive are those of the source.

Legend:
[1] = target: T1, Heat shock factor protein 1 (Mus musculus, UniProt P38532); experiment: decrease of HSF1-responsive luciferase luminescence – cell-based, NIH3T3, dose retest, confirmation (AID 2382); assay type: functional;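 also: NIH3T3 fibroblasts with HSF1-driven luciferase reporter stressed by proteasome inhibitor MG132; luminescence from HSF1-driven luciferase expression after 8 hours of MG132 stress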
T1 sequence (P38532 whole entry): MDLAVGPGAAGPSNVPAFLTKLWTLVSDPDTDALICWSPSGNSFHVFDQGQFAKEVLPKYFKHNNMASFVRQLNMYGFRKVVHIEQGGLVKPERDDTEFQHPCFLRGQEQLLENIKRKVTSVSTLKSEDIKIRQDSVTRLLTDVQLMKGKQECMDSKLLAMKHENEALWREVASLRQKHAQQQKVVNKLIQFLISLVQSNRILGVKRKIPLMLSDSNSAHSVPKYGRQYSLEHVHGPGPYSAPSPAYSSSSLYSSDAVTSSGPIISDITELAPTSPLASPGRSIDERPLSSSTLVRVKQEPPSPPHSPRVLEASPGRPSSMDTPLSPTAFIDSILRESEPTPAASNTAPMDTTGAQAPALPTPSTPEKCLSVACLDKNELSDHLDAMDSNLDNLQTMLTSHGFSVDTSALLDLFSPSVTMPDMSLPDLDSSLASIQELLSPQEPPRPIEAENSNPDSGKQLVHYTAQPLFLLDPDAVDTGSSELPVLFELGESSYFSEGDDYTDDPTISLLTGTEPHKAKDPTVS

[2] = target: Cytochrome P450 3A4 (Homo sapiens, UniProt P08684);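 also: CYP3A4 tested as one member of a cytochrome P450 panel screen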
[3] = target: T2, Cytochrome P450 1A2 (Homo sapiens, UniProt P05177);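 also: PubChem cytochrome P450 panel assay, CYP1A2 panel member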
T2 sequence (P05177 whole entry): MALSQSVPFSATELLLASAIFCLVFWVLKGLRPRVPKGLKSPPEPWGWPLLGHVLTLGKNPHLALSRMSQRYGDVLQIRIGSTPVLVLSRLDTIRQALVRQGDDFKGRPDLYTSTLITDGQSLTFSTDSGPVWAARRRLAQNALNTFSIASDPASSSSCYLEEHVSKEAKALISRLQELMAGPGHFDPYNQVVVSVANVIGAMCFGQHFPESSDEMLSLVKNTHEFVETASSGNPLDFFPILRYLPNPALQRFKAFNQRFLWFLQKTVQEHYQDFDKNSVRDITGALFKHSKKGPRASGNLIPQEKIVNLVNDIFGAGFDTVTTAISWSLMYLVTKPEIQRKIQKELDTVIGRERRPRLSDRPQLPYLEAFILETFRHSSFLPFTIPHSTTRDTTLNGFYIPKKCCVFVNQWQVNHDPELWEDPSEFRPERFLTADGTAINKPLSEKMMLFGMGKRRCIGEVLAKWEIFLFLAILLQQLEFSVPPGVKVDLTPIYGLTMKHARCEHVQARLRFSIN

[4] = target: Cytochrome P450 2C9 (Homo sapiens, UniProt P11712)
[5] = Luminescence Cell-Based Dose Confirmation HTS to Identify Activators of 5'UTR Stem-Loop Driven Alpha-Synuclein mRNA Translation in H4 Neuroglioblastoma Cells. [Related pubchem assays: 1829 (Project Summary), 1814 (Primary HTS)]; assay type: functional
[6] = Luminescence Cell-Based Dose Response HTS to Identify Activators of Luciferase Translation or Activity in H4 […] Cells. [Related pubchem assays: 1829 (Project Summary), 1814 (Primary HTS)]; assay type: functional
[7] = tested on: H4; experiment: Luminescence Cell-Based Dose Response HTS to Identify Activators of 5'UTR Stem-Loop Driven Prion Protein mRNA Translation in H4 Neuroglioblastoma Cells. [Related pubchem assays: 1829 (Project Summary), 1814 (Primary HTS)]; assay type: functional; settings: Homo sapiens
[8] = target: Cytochrome P450 2C19 (Homo sapiens, UniProt P33261); experiment: Cytochrome panel assay with activity outcomes. Panel member name: p450-cyp2c19 Compounds with AC50 equal or less than 10 uM are considered active; assay type: functional; settings: read-out: AC50
[9] = tested on: Streptococcus; experiment: GAS UMAA2166 growth inhibition – luminescence, BacTiterGlo, counter-screen for streptokinase expression inhibitor project, dose response (AID 1915); assay type: functional, organism-based;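 also: potency for reduction of bacterial viability or growth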
[10] = target: T3, Streptokinase A (Streptococcus pyogenes serotype M1, UniProt P10520); experiment: viability-normalized secreted streptokinase activity reduction – plasminogen activation absorbance, OD405, dose response (AID 1914); assay type: functional, Streptococcus pyogenes M1 GAS;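 also: secreted streptokinase activity via plasminogen activation per viability signal from cell pellet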
T3 sequence (P10520 whole entry): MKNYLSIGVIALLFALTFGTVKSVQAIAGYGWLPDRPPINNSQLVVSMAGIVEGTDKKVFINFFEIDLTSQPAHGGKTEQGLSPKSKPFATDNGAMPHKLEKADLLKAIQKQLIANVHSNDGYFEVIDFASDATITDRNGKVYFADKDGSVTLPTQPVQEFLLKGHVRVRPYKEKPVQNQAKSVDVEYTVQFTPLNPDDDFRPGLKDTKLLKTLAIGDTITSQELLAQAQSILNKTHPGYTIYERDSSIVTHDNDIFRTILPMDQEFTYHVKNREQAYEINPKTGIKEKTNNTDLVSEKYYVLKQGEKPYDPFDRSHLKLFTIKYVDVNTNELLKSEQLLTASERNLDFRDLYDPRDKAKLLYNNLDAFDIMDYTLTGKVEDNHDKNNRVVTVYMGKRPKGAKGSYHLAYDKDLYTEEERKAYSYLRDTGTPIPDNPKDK

[11] = tested on: Streptococcus sp. 'group A'; experiment: Streptococcus pyogenes SK(-)GAS viability under kanamycin – luminescence, BacTiterGlo, confirmation, counter-screen for streptokinase expression inhibitor project, dose response (AID 1900); assay type: functional, organism-based

Cytochrome P450 3A4, sequence (P08684 whole entry): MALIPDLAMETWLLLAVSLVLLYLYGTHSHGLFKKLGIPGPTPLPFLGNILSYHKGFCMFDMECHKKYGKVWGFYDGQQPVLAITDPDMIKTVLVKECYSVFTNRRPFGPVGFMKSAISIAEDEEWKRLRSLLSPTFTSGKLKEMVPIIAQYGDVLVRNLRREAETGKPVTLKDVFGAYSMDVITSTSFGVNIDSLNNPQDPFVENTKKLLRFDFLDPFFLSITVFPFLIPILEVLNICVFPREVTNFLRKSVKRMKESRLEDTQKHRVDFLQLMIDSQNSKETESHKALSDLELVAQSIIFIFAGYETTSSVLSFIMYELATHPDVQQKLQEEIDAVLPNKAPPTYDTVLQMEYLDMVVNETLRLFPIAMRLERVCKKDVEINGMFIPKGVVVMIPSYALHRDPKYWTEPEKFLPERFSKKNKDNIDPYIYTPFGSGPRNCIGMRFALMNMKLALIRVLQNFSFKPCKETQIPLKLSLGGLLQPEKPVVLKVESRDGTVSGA
Cytochrome P450 2C9, sequence (P11712 whole entry): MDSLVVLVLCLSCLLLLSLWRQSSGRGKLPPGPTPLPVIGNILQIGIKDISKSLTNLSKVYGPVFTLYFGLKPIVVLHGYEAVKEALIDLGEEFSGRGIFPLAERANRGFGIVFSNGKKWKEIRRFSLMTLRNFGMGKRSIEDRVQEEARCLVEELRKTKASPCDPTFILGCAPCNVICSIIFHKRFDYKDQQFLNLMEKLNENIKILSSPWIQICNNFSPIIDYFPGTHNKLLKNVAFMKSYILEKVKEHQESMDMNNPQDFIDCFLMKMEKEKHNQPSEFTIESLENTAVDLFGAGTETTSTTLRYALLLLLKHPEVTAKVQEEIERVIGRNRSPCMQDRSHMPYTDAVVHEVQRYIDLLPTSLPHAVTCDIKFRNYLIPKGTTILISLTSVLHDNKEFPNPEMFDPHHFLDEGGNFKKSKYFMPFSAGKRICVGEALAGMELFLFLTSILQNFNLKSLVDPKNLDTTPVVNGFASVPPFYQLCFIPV
Cytochrome P450 2C19, sequence (P33261 whole entry): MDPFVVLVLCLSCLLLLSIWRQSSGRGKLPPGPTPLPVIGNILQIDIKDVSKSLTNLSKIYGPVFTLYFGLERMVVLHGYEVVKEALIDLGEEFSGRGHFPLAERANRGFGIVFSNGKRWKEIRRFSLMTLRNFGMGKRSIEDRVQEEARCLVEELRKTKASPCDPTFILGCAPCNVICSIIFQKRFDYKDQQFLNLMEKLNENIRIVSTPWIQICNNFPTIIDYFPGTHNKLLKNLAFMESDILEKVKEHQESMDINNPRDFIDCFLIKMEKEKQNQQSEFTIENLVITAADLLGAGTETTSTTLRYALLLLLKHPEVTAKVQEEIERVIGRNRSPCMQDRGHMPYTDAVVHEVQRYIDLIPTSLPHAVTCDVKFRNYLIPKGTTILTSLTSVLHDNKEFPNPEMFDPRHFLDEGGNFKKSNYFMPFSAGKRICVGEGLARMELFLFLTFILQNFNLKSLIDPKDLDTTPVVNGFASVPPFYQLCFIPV

With C=CCNc1nnnc2c1sc1nc(N3CCOCC3)c3c(c12)CCCC3 as the compound, how does the EC50 [1] read?
The EC50 was > 195 µM (not active).

For CC(C)Sc1nc2sccc2c(=O)n1-c1ccccc1, which EC50 [1] is on record?
The EC50 was > 195 µM (not active).

Which EC50 [1] does the source give for CC(=O)NC1=NN(C(C)=O)C(c2ccccn2)S1 (stereo not drawn) here?
The EC50 was > 195 µM (not active).

Which AC50 [2] does the source give for COc1ccc(-n2c(=O)c(-c3cccs3)nc3cnc(N4CCN(C)CC4)nc32)cc1 here?
The AC50 was 25.1 µM (inconclusive).

What about the AC50 [3] of the same compound?
The AC50 was 2.51 µM (inconclusive).

With CN1CCc2ccccc2[C@@H]1Cc1ccccc1NC(=O)c1sc2ccccc2c1Cl as the compound, how does the AC50 [4] read?
The AC50 was 3.16 µM (inconclusive).

What about the AC50 [3] of the same compound?
Its AC50 is 5.01 µM (inconclusive).

Which AC50 [4] does the source give for COC(=O)[C@@H]1C[C@H]1[C@@H](NC(=O)c1ccccc1)c1ccccc1 here?
The AC50 was 39.8 µM (inconclusive).

With CCOC(=O)C1=C(O)C(Nc2nccs2)(C(F)(F)F)N=C1C (stereo not drawn) as the compound, how does the AC50 [4] read?
Its AC50 is 35.5 µM (inconclusive).

With O=c1c(-c2ccc(F)cc2)nc2cnc(Nc3ccccc3)nc2n1C[C@H]1CCCO1 as the compound, how does the AC50 [2] read?
Its AC50 is 12.6 µM (inconclusive).

And the AC50 [3]?
The AC50 was 2 µM (inconclusive).

With O=C(c1ccccn1)c1cc2ccccc2n1S(=O)(=O)c1ccccc1 as the compound, how does the EC50 [5] read?
The EC50 was 20.5 µM (active).

What about the EC50 [6] of the same compound?
Its EC50 is 55.9 µM (active).

For NNC(=O)CNC(=O)CNS(=O)(=O)c1ccccc1, which EC50 [1] is on record?
The EC50 was > 195 µM (not active).

For O=C(Cc1ccccc1F)Nc1ccc(S(=O)(=O)N2CCCCC2)cc1, which EC50 [1] is on record?
Its EC50 is > 195 µM (not active).

Which EC50 [1] does the source give for O=S(=O)(c1ccccc1)c1c[nH]c(O)n1 here?
The EC50 was > 195 µM (not active).

For Cc1ccc(C2N(c3ccccc3)C(=S)N3CCCN23)cc1 (stereo not drawn), which EC50 [1] is on record?
Its EC50 is > 195 µM (not active).

Which EC50 [7] does the source give for CCN1CCN(c2cc3c(nn2)Oc2ccccc2N3C)CC1 here?
Its EC50 is 0.573 µM (active).

And the EC50 [5]?
Its EC50 is 11.4 µM (active).

What about the EC50 [6] of the same compound?
Its EC50 is 44.6 µM (active).

With COC(=O)c1cc(/C=C/c2ccccc2)[nH]n1 as the compound, how does the EC50 [7] read?
The EC50 was 18.1 µM (active).

And the EC50 [5]?
The EC50 was 25.4 µM (active).

What about the EC50 [6] of the same compound?
The EC50 was 6.84 µM (active).

Which EC50 [7] does the source give for O=C1C(Cl)=C(NCC2CCCO2)C(=O)N1CCc1ccccc1 (stereo not drawn) here?
Its EC50 is 13.1 µM (active).

And the EC50 [5]?
The EC50 was 12.9 µM (active).

What about the EC50 [6] of the same compound?
The EC50 was 15.4 µM (active).

With COc1ccc(-n2c(S)nnc2COc2cccc(C)c2)cc1 as the compound, how does the EC50 [1] read?
The EC50 was > 195 µM (not active).

What does the source list for Cn1c(S)nnc1CCCOc1ccc(Cl)cc1Cl?
EC50 [7]: 7.51 µM (active); EC50 [5]: > 120 µM (not active); EC50 [6]: 22.5 µM (active)

With COc1ccc(-n2c(=O)c(-c3cc(F)cc(F)c3)nc3cncnc32)cc1 as the compound, how does the AC50 [8] read?
The AC50 was 10 µM (inconclusive).

With CC(=O)c1ccc(-n2nnnc2SCC(=O)Nc2cccc(NC(=O)c3ccco3)c2)cc1 as the compound, how does the AC50 [4] read?
Its AC50 is 7.08 µM (inconclusive).

With Cc1cc(NC(=O)c2ccc3nc(C)sc3c2)no1 as the compound, how does the EC50 [1] read?
The EC50 was 0.167 µM (active).

What does the source list for O=C(CCNC(=O)c1ccccc1)OCN1C(=O)c2ccccc2C1=O?
AC50 [2]: 15.8 µM (inconclusive); AC50 [8]: 39.8 µM (inconclusive)

Which EC50 [1] does the source give for COc1ccc(/C=N/Nc2nc(C)cc(O)n2)cc1OC here?
Its EC50 is 29.8 µM (active).

With C/C(=N\NC(=O)CSc1[nH]c(C)nc1[N+](=O)[O-])c1ccc(F)cc1 as the compound, how does the EC50 [7] read?
The EC50 was 97.5 µM (active).

And the EC50 [9]?
The EC50 was > 150 µM (not active).

And the EC50 [10]?
The EC50 was > 150 µM (not active).

What about the EC50 [5] of the same compound?
The EC50 was 15 µM (active).

And the EC50 [11]?
The EC50 was > 150 µM (not active).

What about the EC50 [6] of the same compound?
Its EC50 is 14.3 µM (active).

Which AC50 [2] does the source give for N#C/C(=C\c1ccc(O)c(O)c1)C(=O)OCCc1cccs1 here?
The AC50 was 20 µM (inconclusive).
